Measured values taken from PubChem BioAssay (NCI).
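The compound was tested at five concentrations on cells cultured in 96-well plates, with a 48-hour exposure period. Here, GI50 denotes the concentration required for 50% inhibition of growth. The concentration for full growth arrest is given as TGI.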

Legend:
Assay in all cases: NCI tumour cell line growth inhibition, 48 h
SK-MEL-5 melanoma = test system: SK-MEL-5 melanoma
HT29 colon = test system: HT29 colon
SNB-75 CNS = test system: SNB-75 CNS
SN12C renal = test system: SN12C renal
MALME-3M melanoma = test system: MALME-3M melanoma
IGROV1 ovarian = test system: IGROV1 ovarian
SW-620 colon = test system: SW-620 colon
SF-539 CNS = test system: SF-539 CNS
HOP-62 NSCLC = test system: HOP-62 NSCLC
OVCAR-4 ovarian = test system: OVCAR-4 ovarian

Compound: C/C(=N\NC(=S)N(C)C)c1ccccn1
- GI50 (SK-MEL-5 melanoma): 0.00143 µM
- GI50 (HT29 colon): 0.000846 µM
- TGI (HT29 colon): 15.8 µM
- TGI (SNB-75 CNS): 14.4 µM
- GI50 (SN12C renal): 0.0436 µM
- TGI (SN12C renal): 11.2 µM
- GI50 (MALME-3M melanoma): 0.00639 µM
- GI50 (IGROV1 ovarian): 0.00402 µM
- TGI (IGROV1 ovarian): 4.66 µM
- TGI (SW-620 colon): 35.4 µM
- GI50 (SF-539 CNS): 0.0516 µM
- TGI (SF-539 CNS): 2.77 µM
- GI50 (HOP-62 NSCLC): 0.0203 µM
- TGI (HOP-62 NSCLC): 12.4 µM
- TGI (OVCAR-4 ovarian): 10.4 µM

Compound: N.N.O=P([O-])([O-])C1(P(=O)([O-])[O-])CCCCCN1.[Pt+2]
- GI50 (SK-MEL-5 melanoma): > 100 µM
- TGI (SK-MEL-5 melanoma): > 100 µM
- GI50 (HT29 colon): > 100 µM
- TGI (HT29 colon): > 100 µM
- GI50 (SNB-75 CNS): 29.5 µM
- TGI (SNB-75 CNS): 88.1 µM
- GI50 (SN12C renal): > 100 µM
- TGI (SN12C renal): > 100 µM
- GI50 (MALME-3M melanoma): > 100 µM
- TGI (MALME-3M melanoma): > 100 µM
- GI50 (IGROV1 ovarian): > 100 µM
- TGI (IGROV1 ovarian): > 100 µM
- GI50 (SW-620 colon): > 100 µM
- TGI (SW-620 colon): > 100 µM
- GI50 (SF-539 CNS): 31.9 µM
- TGI (SF-539 CNS): > 100 µM
- GI50 (HOP-62 NSCLC): > 100 µM
- TGI (HOP-62 NSCLC): > 100 µM
- GI50 (OVCAR-4 ovarian): > 100 µM
- TGI (OVCAR-4 ovarian): > 100 µM

Compound: COc1cccc2c1n([O-])c1cccc(OC)c1[n+]2=O
- GI50 (SK-MEL-5 melanoma): 3.59 µM
- TGI (SK-MEL-5 melanoma): 14.9 µM
- GI50 (SN12C renal): 6.85 µM
- TGI (SN12C renal): > 100 µM
- GI50 (MALME-3M melanoma): 8.05 µM
- TGI (MALME-3M melanoma): 25.7 µM
- GI50 (IGROV1 ovarian): 4.8 µM
- TGI (IGROV1 ovarian): 66.1 µM
- GI50 (SW-620 colon): 4.91 µM
- TGI (SW-620 colon): 21.7 µM
- GI50 (SF-539 CNS): 7.85 µM
- TGI (SF-539 CNS): > 100 µM
- GI50 (HOP-62 NSCLC): 11 µM
- TGI (HOP-62 NSCLC): 36.7 µM

Compound: CCN(CC)C(=S)[S][Bi]([S]C(=S)N(CC)CC)[S]C(=S)N(CC)CC
- GI50 (SK-MEL-5 melanoma): 0.634 µM
- TGI (SK-MEL-5 melanoma): 1.7 µM
- GI50 (HT29 colon): 0.052 µM
- TGI (HT29 colon): 0.229 µM
- GI50 (SNB-75 CNS): 0.213 µM
- TGI (SNB-75 CNS): 0.527 µM
- GI50 (SN12C renal): 0.264 µM
- TGI (SN12C renal): 0.696 µM
- GI50 (MALME-3M melanoma): 0.168 µM
- TGI (MALME-3M melanoma): 0.317 µM
- GI50 (IGROV1 ovarian): 0.577 µM
- TGI (IGROV1 ovarian): 1.8 µM
- GI50 (SW-620 colon): 0.0916 µM
- TGI (SW-620 colon): 0.229 µM
- GI50 (SF-539 CNS): 0.195 µM
- TGI (SF-539 CNS): 0.436 µM
- GI50 (HOP-62 NSCLC): 1.9 µM
- TGI (HOP-62 NSCLC): 3.39 µM
- GI50 (OVCAR-4 ovarian): 0.165 µM
- TGI (OVCAR-4 ovarian): 0.31 µM

Compound: CCCCCCCCCCCCCCCCCC(=O)Nc1ccn(C2OC(CO)C(O)C2O)c(=O)n1 (stereo not drawn)
- TGI (SK-MEL-5 melanoma): > 97.5 µM
- TGI (HT29 colon): > 100 µM
- TGI (SNB-75 CNS): > 94.6 µM
- TGI (SN12C renal): > 100 µM
- TGI (MALME-3M melanoma): > 59.1 µM
- TGI (IGROV1 ovarian): > 100 µM
- TGI (SW-620 colon): > 100 µM
- TGI (SF-539 CNS): > 100 µM
- TGI (HOP-62 NSCLC): > 96.2 µM
- TGI (OVCAR-4 ovarian): > 100 µM

Compound: Cn1c(=O)c2/c(n(C)c1=O)=N\C=c1\c(=O)n(C)c(=O)n(C)\c1=N\C=2
- TGI (SK-MEL-5 melanoma): > 100 µM
- TGI (HT29 colon): > 100 µM
- TGI (SNB-75 CNS): > 100 µM
- TGI (SN12C renal): > 100 µM
- TGI (MALME-3M melanoma): > 100 µM
- TGI (IGROV1 ovarian): > 100 µM
- TGI (SW-620 colon): > 100 µM
- TGI (SF-539 CNS): > 100 µM
- TGI (HOP-62 NSCLC): > 100 µM
- TGI (OVCAR-4 ovarian): > 100 µM

Compound: Cc1ccc(C(=O)CC2=Nc3nnc(CCCCCCCc4nnc5n4C(=O)C(CC(=O)c4ccc(C)cc4)=N5)n3C2=O)cc1
- TGI (SK-MEL-5 melanoma): > 100 µM
- TGI (HT29 colon): > 100 µM
- TGI (SNB-75 CNS): 86.9 µM
- TGI (SN12C renal): > 100 µM
- TGI (MALME-3M melanoma): > 100 µM
- TGI (IGROV1 ovarian): > 100 µM
- TGI (SW-620 colon): > 100 µM
- TGI (SF-539 CNS): > 100 µM
- TGI (HOP-62 NSCLC): > 100 µM
- TGI (OVCAR-4 ovarian): > 100 µM

Compound: O=C(NC(=O)c1ccccc1[N+](=O)[O-])Nc1ccc(Oc2ncc(Cl)cn2)c(C(F)(F)F)c1
- TGI (SK-MEL-5 melanoma): 1.17 µM
- TGI (HT29 colon): 0.167 µM
- TGI (SN12C renal): 62.9 µM
- TGI (MALME-3M melanoma): > 100 µM
- TGI (IGROV1 ovarian): > 100 µM
- TGI (SW-620 colon): > 11.9 µM
- TGI (SF-539 CNS): 0.489 µM
- TGI (HOP-62 NSCLC): 66.4 µM
- TGI (OVCAR-4 ovarian): 98.4 µM
